Measurements taken from patent US4124703A, “Luliberin analogs” (Imperial Chemical Industries Limited, priority 1976, dated 1978).
Non-standard residues stand in square brackets, D forms with d. Residues, ends and D or L forms follow the SMILES beside them. pGlu = O=C1CC[C@@H](C(=O)O)N1; azaGly = NNC(=O)O

Columns and labels:
[1] = overt toxic effects at multiples of the minimum active dose; type: in vivo; settings: dosed at 20 times its minimum effective dose
luliberin = settings: literature: Coy et al., Molecular and Cellular Endocrinology, 1976, 5, 201-208; cited from earlier work

Compound	overt toxic effects [1]	luliberin antagonist properties (luliberin)
CC(C)C[C@H](NC(=O)[C@@H](Cc1ccccc1)NC(=O)[C@H](Cc1ccc(O)cc1)NC(=O)[C@H](CO)NC(=O)[C@H](Cc1c[nH]c2ccccc12)NC(=O)[C@@H](Cc1ccccc1)NC(=O)[C@@H]1CCC(=O)N1)C(=O)N[C@@H](CCCNC(=N)N)C(=O)N1CCC[C@H]1C(=O)NNC(N)=O [Example 1, L-pyroglutamyl-D-phenylalanyl-L-tryptophyl-L-seryl-L-tyrosyl-D-phenylalanyl-L-leucyl-L-arginyl-L-prolylazaglycine amide] ([pGlu][dF]WSY[dF]LRP[azaGly]-NH2)	no overt toxic effects	
[D-Phe^2, D-Phe^6 ] luliberin		has luliberin antagonist properties
